Experimental findings from patent publication US20110207771A1, “N-(L-ALKYL-2-PHENYLETHYL)-CARBOXAMIDE DERIVATIVES AND USE THEREOF AS FUNGICIDES” (SYNGENTA CROP PROTECTION, INC., priority 2006, published 2011) are described below.

Data set [1] relates to Mycosphaerella arachidis (Cercospora arachidicola). Briefly: Example B-12: action against Mycosphaerella arachidis, fungal growth assay. In kind it is cell-based. The settings on record: 6-7 days. As to the method: (§1) Example B-12: Action Against Mycosphaerella arachidis (Early Leaf Spot of Groundnut; Cercospora arachidicola (Anamorph))—Fungal Growth Assay Conidia of the fungus from cryogenic storage were directly mixed into nutrient broth (PDB potato dextrose broth). After placing a (DMSO) solution of the test compounds into a microtiter plate (96-well format) the nutrient broth containing the fungal spores was added. The test plates were incubated at 24° C. and the inhibition of growth was measured photometrically after 6-7 days. The activity of a compound is expressed as fungal growth inhibition (0=no growth inhibition, ratings of 80% to 99% mean good to very good inhibition, 100%=complete inhibition).

For another data set, the system named is Septoria tritici. Nature of the data set: Example B-13: action against Septoria tritici, fungal growth assay. The data set is classed as cell-based. To be noted: for fungal growth inhibition: 72 hrs. As to the method:
as §1, with “B-13:” for “B-12:”, “Septoria tritici—Fungal” for “Mycosphaerella arachidis (Early Leaf Spot of Groundnut; Cercospora arachidicola (Anamorph))—Fungal”, “determined” for “measured”, “72 hrs.” for “6-7 days.”

For a further data set, the system named is Botrytis cinerea. Briefly: Example B-11: action against Botrytis cinerea, fungal growth assay. In kind it is cell-based. To be noted: 48-72 hrs. On the procedure: as §1, with “B-11:” for “B-12:”, “Botrytis cinerea—Fungal” for “Mycosphaerella arachidis (Early Leaf Spot of Groundnut; Cercospora arachidicola (Anamorph))—Fungal”, “determined” for “measured”, “48-72 hrs.” for “6-7 days.”

For data set [2], the system named is Monographella nivalis (Fusarium nivale, Microdochium nivale). Briefly: Example B-14: action against Monographella nivalis, fungal growth assay. The data set is classed as cell-based. To be noted: 72 hrs. On the procedure: Example B-14: Action Against Monographella nivalis (Anamorph: Fusarium nivale, Microdochium nivale; Snow Mould)—Fungal Growth Assay After placing a DMSO-solution (2% Dimethylsulfoxid, 0.025% Tween 20) of the test compounds into a microtiter plate (96-well format) the nutrient broth containing the fungal spores was added. 40.000 conidia/ml of the fungus from cryogenic storage were directly mixed into nutrient broth (PDB potato dextrose broth). The compounds were tested at a variety of application rates; these rates are shown in parts per million (ppm) in the table. The test plates were incubated at 24° C. and the inhibition of growth was measured photometrically after 72 hrs (0=no growth inhibition, ratings of 80% to 99% mean good to very good inhibition, 100%=complete inhibition).

The next data set deals with Pyrenophora teres. Briefly: Example B-15: action against Pyrenophora teres (net blotch) on barley leaf segments. To be noted: 4 days after inoculation. The data set is classed as in vivo. On the procedure: Example B-15: Action Against Pyrenophora teres (Net Blotch) on Barley Barley leaf segments are placed on agar in multiwell plates (24-well format) and sprayed with test solutions (200 ppm, […], and 20 ppm of active ingredient). After drying, the leaf disks are inoculated with a spore suspension of the fungus. After appropriate incubation the activity of a compound is assessed 4 days after inoculation as preventive fungicidal activity (in %).

As usually defined, the inhibition is the change of the read-out against control, counted positive when it falls. The low end stands for little suppression, the high end for strong suppression. Take `CC(Cc1ccc(Cl)cc1Cl)NC(=O)c1cn(C)nc1C(F)F` (single isomer, unassigned; (+)) [(+)-3-difluoromethyl-1-methyl-1H-pyrazole-4-carboxylic acid [2-(2,4-dichlorophenyl)-1-methyl-ethyl]-amide]: the inhibition at 20 ppm in data set [1] (Mycosphaerella arachidis, 20 ppm) came out at 100%; with Septoria tritici (Zymoseptoria tritici, 72 h, 20 ppm), 100%. In the data set with Septoria tritici (Zymoseptoria tritici, 72 h, 6 ppm), this compound had an inhibition at 6 ppm of 100%.

As a reminder, the inhibition of growth is how much of the control response was suppressed. The low end stands for little suppression, the high end for strong suppression. With `CC(Cc1ccc(Cl)cc1Cl)NC(=O)c1cn(C)nc1C(F)F` (single isomer, unassigned; (+)) [(+)-3-difluoromethyl-1-methyl-1H-pyrazole-4-carboxylic acid ] [(+)-3-difluoromethyl-1-methyl-1H-pyrazole-4-carboxylic acid [2-(2,4-dichlorophenyl)-1-methyl-ethyl]-amide], the figures for the fungal growth inhibition with Botrytis cinerea (2 ppm), in the data set on Botrytis cinerea (6 ppm) and with Botrytis cinerea (20 ppm) were 80%, 100% and 100%, respectively. Also, the inhibition of growth in data set [2] (2 ppm), in data set [2] (6 ppm) and in data set [2] (20 ppm) was 100% each time. Also, the preventive fungicidal activity with Pyrenophora teres (20 ppm), with Pyrenophora teres (60 ppm) and with Pyrenophora teres (200 ppm) was 100% in each case.

For the compound `CC(Cc1ccc(Cl)cc1Cl)NC(=O)c1cn(C)nc1C(F)F` (single isomer, unassigned; (-)) [(−)-3-difluoromethyl-1-methyl-1H-pyrazole-4-carboxylic acid ] [(−)-3-difluoromethyl-1-methyl-1H-pyrazole-4-carboxylic acid [2-(2,4-dichlorophenyl)-1-methyl-ethyl]-amide], the fungal growth inhibition with Botrytis cinerea (2 ppm) turned out to be 0%; in the data set with Botrytis cinerea (6 ppm), 20%; with Botrytis cinerea (20 ppm), 20%; in data set [1] (2 ppm) it was 0%; in data set [1] (6 ppm), 50%; in data set [1] (20 ppm) it was 80%. Further, the fungal growth inhibition in the data set on Septoria tritici (2 ppm) amounted to 0%; with Septoria tritici (6 ppm), 80%; with Septoria tritici (20 ppm), 100%. The inhibition of growth turned out to be 0% in data set [2] (2 ppm), 0% in data set [2] (6 ppm) and 20% in data set [2] (20 ppm). For the same compound, the preventive fungicidal activity is recorded as 80% with Pyrenophora teres (20 ppm), 100% in the data set on Pyrenophora teres (60 ppm) and 100% in the data set with Pyrenophora teres (200 ppm).

Usually melting point stands for the temperature of the solid-liquid transition. Regarding `CC(Cc1ccc(Cl)cc1Cl)NC(=O)c1cn(C)nc1C(F)F` (stereo not shown) [Compound 1.197, 3-difluoromethyl-1-methyl-1H-pyrazole-4-carboxylic acid [2-(2,4-dichlorophenyl)-1-methyl-ethyl]-amide], the melting point was 157 °C.

Turning to `Cn1cc(C(=O)NC2(Cc3ccc(Cl)cc3Cl)CC2)c(C(F)F)n1` [Compound 1.231, 3-difluoromethyl-1-methyl-1H-pyrazole-4-carboxylic acid [1-(2,4-dichlorobenzyl)-cyclopropyl]-amide], the melting point is 165 to 168 °C.

As to `CC(Cc1ccc(Br)cc1Cl)NC(=O)c1cn(C)nc1C(F)F` (stereo not shown) [Compound 1.451, 3-difluoromethyl-1-methyl-1H-pyrazole-4-carboxylic acid [2-(4-bromo-2-chlorophenyl)-1-methyl-ethyl]-amide], the melting point lay within 183 to 184 °C.

Take `CC(Cc1ccc(-c2ccc(Cl)cc2)cc1Cl)NC(=O)c1cn(C)nc1C(F)F` (stereo not shown) [Compound 1.462, 3-difluoromethyl-1-methyl-1H-pyrazole-4-carboxylic acid [2-(3,4′-dichlorobiphenyl-4-yl)-1-methyl-ethyl]-amide]: the melting point lay within 96 to 98 °C.
